From article PMC6366404, “4-(3-Nitrophenyl)thiazol-2-ylhydrazone derivatives as antioxidants and selective hMAO-B inhibitors: synthesis, biological activity and computational analysis” (Journal of Enzyme Inhibition and Medicinal Chemistry, 2019)

Tests used:
[1] = ABTS radical cation scavenging activity
Procedure: (§1) The scavenging activity of the compounds on the ABTS radical cation [ABTS,2,2′-azino-bis(3-ethylbenzothiazoline)-6-sulphonic acid] was measured according to the method of Zengin et al.[37] with slight modification. Briefly, ABTS^+ was produced directly by reacting a 7 mM ABTS solution with 2.45 mM potassium persulphate and allowing the mixture to incubate for 12–16 h in the dark at room temperature. Prior to initiating the assay, the ABTS solution was diluted with methanol to an absorbance of 0.700 ± 0.02 at 734 nm. The sample solution (1 ml) was added to the ABTS^+ solution (2 ml) and mixed, and the sample absorbance was recorded at 734 nm after 30 min incubation at room temperature. The corresponding IC50 value, which is the effective concentration at which 50% of DPPH/ABTS radicals are scavenged, was calculated for each compound and trolox, as a reference drug.

[2] = FRAP (ferric reducing antioxidant power) assay
Procedure: (§2) The FRAP (ferric reducing antioxidant power) assay was carried out as described by Zengin et al.[38]. The sample solution (0.1 ml) was added to the premixed FRAP reagent (2 ml) containing acetate buffer (0.3 M, pH 3.6), 2,4,6-tris(2-pyridyl)-s-triazine (10 mM) in 40 mM HCl, and ferric chloride (20 mM) in a ratio of 10/1/1 (v/v/v). The absorbance of the sample was subsequently recorded at 593 nm after 30 min incubation at room temperature. Both results were expressed as EC50 values, using trolox as a reference drug.

[3] = DPPH radical scavenging activity
Procedure: The radical scavenging effect of the compounds using the 1,1-diphenyl-2-picrylhydrazyl (DPPH) radical was estimated according to Zengin et al.[36]. The sample solution (1 ml) was added to 4 ml of a 0.004% solution of DPPH in methanol. The sample absorbance was recorded at 517 nm after 30 min incubation at room temperature in the dark.
as §1

[4] = Cupric ion reducing activity (CUPRAC)
Procedure: The cupric ion reducing activity (CUPRAC) was determined according to the method of Zengin et al.[38]. The sample solution (0.5 ml) was added to a premixed reaction mixture containing CuCl2 (1 ml, 10 mM), neocuproine (1 ml, 7.5 mM), and NH4Ac buffer (1 ml, 1 M, pH 7.0). Similarly, a blank was prepared by adding the sample solution (0.5 ml) to a premixed reaction mixture (3 ml) without CuCl2. The absorbances of the sample and blank were subsequently recorded at 450 nm after 30 min incubation at room temperature. The absorbance of the blank was subtracted from that of the sample.
as §2

[5] = Metal chelating activity on ferrous ions; conditions: ferrozine
Procedure: Metal chelating activity on ferrous ions was evaluated by the method previously described. Briefly, the sample solution (2 ml) was added to FeCl2 solution (0.05 ml, 2 mM). The reaction was initiated by the addition of 5 mM ferrozine (0.2 ml). Similarly, a blank was prepared by adding the sample solution (2 ml) to FeCl2 solution (0.05 ml, 2 mM) and water (0.2 ml) without ferrozine. Then, the sample and blank absorbance were recorded at 562 nm after incubation for 10 min at room temperature. The absorbance of the blank was subtracted from that of the sample. EDTA was used as a positive control and this property was expressed as IC50 value for each compound.

[6] = Phosphomolybdenum assay (PhosphoMo), total antioxidant activity; conditions: concentration at which absorbance was 0.5
Procedure: The total antioxidant activity of the compounds was evaluated by phosphomolybdenum method according to Zengin et al.[35]. The sample solution (0.3 ml) was combined with 3 ml of reagent solution (0.6 M sulphuric acid, 28 mM sodium phosphate, and 4 mM ammonium molybdate) and the absorbance was recorded at 695 nm after 90 min incubation at 95 °C. The EC50, which is the effective concentration at which the absorbance was 0.5, was calculated for each compound and trolox, as a reference drug.

SMILES	melting point	IC50 [1]	EC50 [2]	IC50 [3]	EC50 [4]	IC50 [5]	EC50 [6]
CCC(=NNc1nc(-c2cccc([N+](=O)[O-])c2)cs1)c1ccccc1	215 to 217 °C						
CC(=NNc1nc(-c2cccc([N+](=O)[O-])c2)cs1)c1cccc([N+](=O)[O-])c1	214 to 216 °C						
CC(=NNc1nc(-c2cccc([N+](=O)[O-])c2)cs1)c1ccc([N+](=O)[O-])cc1	258 to 260 °C						
O=[N+]([O-])c1cccc(-c2csc(NN=Cc3c[nH]c4ccccc34)n2)c1	253 to 255 °C						
CC(=NNc1nc(-c2cccc([N+](=O)[O-])c2)cs1)c1c[nH]c2ccccc12	209 to 211 °C						
O=[N+]([O-])c1cccc(-c2csc(NN=Cc3ccc4c(c3)OCO4)n2)c1	255 to 256 °C						
CC(=NNc1nc(-c2cccc([N+](=O)[O-])c2)cs1)c1cc2ccccc2o1	228 to 230 °C						
CC(=NNc1nc(-c2cccc([N+](=O)[O-])c2)cs1)c1ccc2c(c1)OCCO2	242 to 244 °C						
CC(=NNc1nc(-c2cccc([N+](=O)[O-])c2)cs1)c1ccc2ccccc2c1	152 to 154 °C						
O=[N+]([O-])c1cccc(-c2csc(NN=C(c3ccccc3)c3ccccc3)n2)c1	166 to 168 °C						
CC(=NNc1nc(-c2cccc([N+](=O)[O-])c2)cs1)c1cc2ccccc2oc1=O	183 to 185 °C						
CC(=NNc1nc(-c2cccc([N+](=O)[O-])c2)cs1)c1ccc(C(C)=NNc2nc(-c3cccc([N+](=O)[O-])c3)cs2)cc1	283 to 285 °C						
O=[N+]([O-])c1cccc(C=NNc2nc(-c3cccc([N+](=O)[O-])c3)cs2)c1	222 to 224 °C						
CC(=NNc1nc(-c2cccc([N+](=O)[O-])c2)cs1)c1ccc(Cl)s1 [Compound 6, 1-(1-(5-Chlorothiophen-2-yl)ethylidene)-2-(4-(3-nitrophenyl)thiazol-2-yl)hydrazine]	227 to 229 °C	1080 ± 10 µM	620 ± 70 µM	1180 ± 10 µM	490 ± 10 µM	> 5000 µM	1250 ± 50 µM
O=[N+]([O-])c1cccc(-c2csc(NN=Cc3ccccc3)n2)c1 [Compound 7, 1-Benzylidene-2-(4-(3-nitrophenyl)thiazol-2-yl)hydrazine]	193 to 195 °C	1040 ± 10 µM	660 ± 40 µM	1380 ± 10 µM	660 ± 10 µM	> 5000 µM	1290 ± 160 µM
O=[N+]([O-])c1cccc(-c2csc(NN=Cc3ccccc3[N+](=O)[O-])n2)c1 [Compound 8, 1-(2-Nitrobenzylidene)-2-(4-(3-nitrophenyl)thiazol-2-yl)hydrazine]	228 to 230 °C	1040 ± 10 µM	470 ± 40 µM	1470 ± 10 µM	440 ± 20 µM	> 5000 µM	1700 ± 50 µM
O=[N+]([O-])c1cccc(-c2csc(NN=Cc3ccccn3)n2)c1 [Compound 16, 1-(4-(3-Nitrophenyl)thiazol-2-yl)-2-(pyridin-2-ylmethylene)hydrazine]		1060 ± 20 µM	510 ± 20 µM	1320 ± 10 µM	530 ± 20 µM	> 5000 µM	1130 ± 10 µM
O=[N+]([O-])c1cccc(-c2csc(NN=Cc3ccncc3)n2)c1 [Compound 18, 1-(4-(3-Nitrophenyl)thiazol-2-yl)-2-(pyridin-4-ylmethylene)hydrazine]		1040 ± 10 µM	350 ± 10 µM	1370 ± 10 µM	580 ± 10 µM	> 5000 µM	4700 ± 970 µM
CC(=NNc1nc(-c2cccc([N+](=O)[O-])c2)cs1)c1ccccn1 [Compound 19, 1-(4-(3-Nitrophenyl)thiazol-2-yl)-2-(1-(pyridin-2-yl)ethylidene)hydrazine]		1040 ± 10 µM	380 ± 20 µM	1360 ± 10 µM	510 ± 10 µM	> 5000 µM	2640 ± 340 µM
CC(=NNc1nc(-c2cccc([N+](=O)[O-])c2)cs1)c1cccnc1 [Compound 20, 1-(4-(3-Nitrophenyl)thiazol-2-yl)-2-(1-(pyridin-3-yl)ethylidene)hydrazine]		1040 ± 10 µM	320 ± 20 µM	1290 ± 10 µM	420 ± 20 µM	> 5000 µM	1770 ± 70 µM
CC(=NNc1nc(-c2cccc([N+](=O)[O-])c2)cs1)c1ccncc1 [Compound 21, 1-(4-(3-Nitrophenyl)thiazol-2-yl)-2-(1-(pyridin-4-yl)ethylidene)hydrazine]		1040 ± 10 µM	270 ± 10 µM	1340 ± 20 µM	460 ± 20 µM	> 5000 µM	4480 ± 180 µM
CC(=NNc1nc(-c2cccc([N+](=O)[O-])c2)cs1)c1cnccn1 [Compound 22, 1-(4-(3-Nitrophenyl)thiazol-2-yl)-2-(1-(pyrazin-2-yl)ethylidene)hydrazine]	243 to 245 °C	1040 ± 10 µM	480 ± 40 µM	1340 ± 10 µM	910 ± 20 µM	3860 ± 290 µM	1280 ± 30 µM
O=[N+]([O-])c1cccc(-c2csc(NN=Cc3cccc4ccccc34)n2)c1 [Compound 28, 1-(Naphthalen-1-ylmethylene)-2-(4-(3-nitrophenyl)thiazol-2-yl)hydrazine]	212 to 214 °C	1050 ± 10 µM	410 ± 10 µM	1300 ± 10 µM	510 ± 30 µM	> 5000 µM	4930 ± 830 µM
CC(=NNc1nc(-c2cccc([N+](=O)[O-])c2)cs1)c1cccc2ccccc12 [Compound 29, 1-(1-(Naphthalen-1-yl)ethylidene)-2-(4-(3-nitrophenyl)thiazol-2-yl)hydrazine]	226 to 228 °C	1040 ± 10 µM	530 ± 20 µM	1420 ± 10 µM	460 ± 10 µM	> 5000 µM	9390 ± 310 µM
O=C(O)CN(CCN(CC(=O)O)CC(=O)O)CC(=O)O [EDTA, reference compound]						20 ± 1 µM	
Cc1c(C)c2c(c(C)c1O)CCC(C)(C(=O)O)O2 (stereo not shown) [Trolox, trolox, reference compound]		660 ± 20 µM	160 ± 10 µM	400 ± 10 µM	240 ± 20 µM		1130 ± 50 µM
